Assay results reported in PubChem BioAssay (NCI).
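Following 48 hours of exposure in 96-well plates, responses at five concentrations were used to interpolate endpoints linearly. TGI: concentration producing complete growth inhibition.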

Tests used:
Experiment in all cases: NCI anticancer screen, dose series, 48 h
DMS 114 small cell lung = system: DMS 114 small cell lung
OVCAR-3 ovarian = system: OVCAR-3 ovarian
CAKI-1 renal = system: CAKI-1 renal
NCI-H23 lung = system: NCI-H23 lung
SK-MEL-2 melanoma = system: SK-MEL-2 melanoma
SK-MEL-5 melanoma = system: SK-MEL-5 melanoma
ACHN renal = system: ACHN renal
SF-268 CNS = system: SF-268 CNS
RPMI-8226 leukemia = system: RPMI-8226 leukemia
DMS 273 small cell lung = system: DMS 273 small cell lung
SF-539 CNS = system: SF-539 CNS
UACC-257 melanoma = system: UACC-257 melanoma
SK-MEL-28 melanoma = system: SK-MEL-28 melanoma
SF-295 CNS = system: SF-295 CNS
SN12C renal = system: SN12C renal
MALME-3M melanoma = system: MALME-3M melanoma
KM12 colon = system: KM12 colon
786-0 renal = system: 786-0 renal
CCRF-CEM leukemia = system: CCRF-CEM leukemia
HOP-18 NSCLC = system: HOP-18 NSCLC
SR leukemia = system: SR leukemia
HL-60(TB) leukemia = system: HL-60(TB) leukemia
NCI-H226 lung = system: NCI-H226 lung
LXFL 529 NSCLC = system: LXFL 529 NSCLC
SK-OV-3 ovarian = system: SK-OV-3 ovarian
HOP-62 NSCLC = system: HOP-62 NSCLC
MOLT-4 leukemia = system: MOLT-4 leukemia
EKVX NSCLC = system: EKVX NSCLC
SNB-19 CNS = system: SNB-19 CNS
K-562 leukemia = system: K-562 leukemia
HT29 colon = system: HT29 colon
HCT-116 colon = system: HCT-116 colon
IGROV1 ovarian = system: IGROV1 ovarian
NCI-H522 lung = system: NCI-H522 lung
M19-MEL melanoma = system: M19-MEL melanoma
COLO 205 colon = system: COLO 205 colon
HCT-15 colon = system: HCT-15 colon
UACC-62 melanoma = system: UACC-62 melanoma
TK-10 renal = system: TK-10 renal
OVCAR-8 ovarian = system: OVCAR-8 ovarian
SW-620 colon = system: SW-620 colon
LOX IMVI melanoma = system: LOX IMVI melanoma
HOP-92 NSCLC = system: HOP-92 NSCLC
XF 498 CNS = system: XF 498 CNS
RXF 393 renal = system: RXF 393 renal
NCI-H460 lung = system: NCI-H460 lung
DLD-1 colon = system: DLD-1 colon
A549 NSCLC = system: A549 NSCLC
M14 melanoma = system: M14 melanoma
KM20L2 colon = system: KM20L2 colon
UO-31 renal = system: UO-31 renal
SNB-78 CNS = system: SNB-78 CNS
SNB-75 CNS = system: SNB-75 CNS
U251 CNS = system: U251 CNS
OVCAR-4 ovarian = system: OVCAR-4 ovarian
OVCAR-5 ovarian = system: OVCAR-5 ovarian
HCC-2998 colon = system: HCC-2998 colon

## O=c1c(-c2ccccc2)c2oc(c1-c1ccccc1)CS(=O)(=O)CCC2
DMS 114 small cell lung
  TGI: > 100 µM
OVCAR-3 ovarian
  TGI: 73 µM
CAKI-1 renal
  TGI: 96.9 µM
NCI-H23 lung
  TGI: 38.9 µM
SK-MEL-2 melanoma
  TGI: > 100 µM
SK-MEL-5 melanoma
  TGI: 85 µM
ACHN renal
  TGI: > 100 µM
SF-268 CNS
  TGI: 83.3 µM
RPMI-8226 leukemia
  TGI: > 100 µM
DMS 273 small cell lung
  TGI: 58.3 µM
SF-539 CNS
  TGI: 42.4 µM
UACC-257 melanoma
  TGI: > 100 µM
SK-MEL-28 melanoma
  TGI: 38.3 µM
SF-295 CNS
  TGI: > 100 µM
SN12C renal
  TGI: 44.2 µM
MALME-3M melanoma
  TGI: > 100 µM
KM12 colon
  TGI: > 100 µM
786-0 renal
  TGI: 44.1 µM
CCRF-CEM leukemia
  TGI: > 100 µM
HOP-18 NSCLC
  TGI: > 100 µM
SR leukemia
  TGI: > 100 µM
HL-60(TB) leukemia
  TGI: > 100 µM
NCI-H226 lung
  TGI: 80.9 µM
LXFL 529 NSCLC
  TGI: 33.7 µM
SK-OV-3 ovarian
  TGI: > 100 µM
HOP-62 NSCLC
  TGI: > 100 µM
MOLT-4 leukemia
  TGI: > 100 µM
EKVX NSCLC
  TGI: > 100 µM
SNB-19 CNS
  TGI: > 100 µM
K-562 leukemia
  TGI: > 100 µM
HT29 colon
  TGI: 75.8 µM
HCT-116 colon
  TGI: 26.3 µM
IGROV1 ovarian
  TGI: > 100 µM
NCI-H522 lung
  TGI: 22.7 µM
M19-MEL melanoma
  TGI: 30.7 µM
COLO 205 colon
  TGI: 42.1 µM
HCT-15 colon
  TGI: 32.9 µM
UACC-62 melanoma
  TGI: 54.3 µM
TK-10 renal
  TGI: > 100 µM
OVCAR-8 ovarian
  TGI: > 100 µM
SW-620 colon
  TGI: > 100 µM
LOX IMVI melanoma
  TGI: 45.8 µM
HOP-92 NSCLC
  TGI: > 100 µM
XF 498 CNS
  TGI: 24.7 µM
RXF 393 renal
  TGI: 29.5 µM
NCI-H460 lung
  TGI: > 100 µM
DLD-1 colon
  TGI: 58.8 µM
A549 NSCLC
  TGI: > 100 µM

## CCOC(=O)C1(C#N)C(c2ccccc2)CC(O)(c2ccc([N+](=O)[O-])cc2)C(C(=O)c2ccc([N+](=O)[O-])cc2)C1c1ccccc1 (configuration not stated)
DMS 114 small cell lung
  TGI: > 100 µM
OVCAR-3 ovarian
  TGI: > 100 µM
CAKI-1 renal
  TGI: > 100 µM
NCI-H23 lung
  TGI: > 100 µM
SK-MEL-2 melanoma
  TGI: > 100 µM
M14 melanoma
  TGI: > 100 µM
ACHN renal
  TGI: > 100 µM
SF-268 CNS
  TGI: > 100 µM
RPMI-8226 leukemia
  TGI: > 100 µM
DMS 273 small cell lung
  TGI: > 100 µM
KM20L2 colon
  TGI: > 100 µM
UACC-257 melanoma
  TGI: > 100 µM
UO-31 renal
  TGI: > 100 µM
SK-MEL-28 melanoma
  TGI: > 100 µM
SF-295 CNS
  TGI: > 100 µM
SN12C renal
  TGI: > 100 µM
MALME-3M melanoma
  TGI: > 100 µM
KM12 colon
  TGI: > 100 µM
786-0 renal
  TGI: > 100 µM
CCRF-CEM leukemia
  TGI: > 100 µM
HOP-18 NSCLC
  TGI: > 100 µM
SR leukemia
  TGI: > 100 µM
HL-60(TB) leukemia
  TGI: > 100 µM
NCI-H226 lung
  TGI: > 100 µM
SNB-78 CNS
  TGI: > 100 µM
LXFL 529 NSCLC
  TGI: > 100 µM
SK-OV-3 ovarian
  TGI: > 100 µM
HOP-62 NSCLC
  TGI: > 100 µM
SNB-75 CNS
  TGI: 96.5 µM
U251 CNS
  TGI: > 100 µM
MOLT-4 leukemia
  TGI: > 100 µM
EKVX NSCLC
  TGI: > 100 µM
SNB-19 CNS
  TGI: > 100 µM
K-562 leukemia
  TGI: > 100 µM
OVCAR-4 ovarian
  TGI: > 100 µM
HT29 colon
  TGI: > 100 µM
HCT-116 colon
  TGI: > 100 µM
IGROV1 ovarian
  TGI: > 100 µM
NCI-H522 lung
  TGI: > 100 µM
M19-MEL melanoma
  TGI: > 100 µM
COLO 205 colon
  TGI: > 100 µM
OVCAR-5 ovarian
  TGI: > 100 µM
HCT-15 colon
  TGI: > 100 µM
UACC-62 melanoma
  TGI: > 100 µM
TK-10 renal
  TGI: > 100 µM
OVCAR-8 ovarian
  TGI: > 100 µM
HCC-2998 colon
  TGI: > 100 µM
SW-620 colon
  TGI: > 100 µM
LOX IMVI melanoma
  TGI: > 100 µM
XF 498 CNS
  TGI: > 100 µM
RXF 393 renal
  TGI: 42.6 µM
NCI-H460 lung
  TGI: > 100 µM
DLD-1 colon
  TGI: > 100 µM
A549 NSCLC
  TGI: > 100 µM
